Consider 24 compounds from patent US20190375708A1 (VenatoRx Pharmaceuticals, Inc., priority 2018, published 2019).

A value given as a limit tells only on which side of the number the result lay.

Data set [1] deals with HBV replication in HepAD38 cells. Put plainly: Anti-HBV replication assay in HepAD38 cells (QPCR of extracellular HBV DNA). Format: cell-based, HBV (genotype D, serotype ayw). The settings on record: Hepatitis B virus, 168 h, 7 days incubation, extracellular HBV DNA by QPCR, read-out: Anti-HBV EC50. In short, it runs like this: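 HepAD38 cells (HepG2 carrying a tet-repressible HBV genotype D genome) were seeded in tetracycline-free medium and treated next day with compound […] for 7 days. Supernatant HBV DNA was measured by QPCR against a standard curve; EC50 came from 4-parameter fits of inhibition versus DMSO control.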

Data set [2] can be described thus: In vitro cytotoxicity assay (MTT cell viability) in HepG2 cells. Type of data set: cell-based, human. As to conditions: human. Put shortly:
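Read-out: MTT formazan absorbance at 492 nm, expressed as % of vehicle signal; CC50 by 4-parameter non-linear regression. Parental HepG2, 20,000 cells/well, treated 7 days with compound from 30 μM down to 1.0 nM.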

For `Cc1cc(NC(=O)c2c(Cl)c(C(=O)C(=O)NC(C)(C)C)n3c2CCCC3)ccc1F` [Example 489], the EC50 in data set [1] was below 50 nM. The same compound showed a 50% cytotoxic concentration (CC50) at 7 days in data set [2] above 30 µM.

For the compound `Cc1cc(NC(=O)c2c(Cl)c(C(=O)C(=O)NC(C)(C)CO)n3c2CCCC3)ccc1F` [Example 490, 2-chloro-N-(4-fluoro-3-methylphenyl)-3-(2-((1-hydroxy-2-methylpropan-2-yl)amino)-2-oxoacetyl)-5,6,7,8-tetrahydroindolizine-1-carboxamide], in data set [1], the EC50 was below 50 nM. For the same compound, the half-maximal cytotoxic concentration (CC50) at 7 days in data set [2] was above 30 µM.

Take `CC(C)(CO)NC(=O)C(=O)c1c(Cl)c(C(=O)Nc2ccc(F)c(F)c2)c2n1CCCC2` [Example 492, 2-chloro-N-(3,4-difluorophenyl)-3-(2-((1-hydroxy-2-methylpropan-2-yl)amino)-2-oxoacetyl)-5,6,7,8-tetrahydroindolizine-1-carboxamide]: the half-maximal effective concentration (EC50) in data set [1] was below 50 nM. The compound also gave a half-maximal cytotoxic concentration (CC50) at 7 days in data set [2] of 5 to 30 µM.

`Cc1noc([C@@H](NC(=O)C(=O)c2c(Cl)c(C(=O)Nc3ccc(F)c(C)c3)c3n2CCCC3)C(C)C)n1` [Example 493, (S)-2-chloro-N-(4-fluoro-3-methylphenyl)-3-(2-((2-methyl-1-(3-methyl-1,2,4-oxadiazol-5-yl)propyl)amino)-2-oxoacetyl)-5,6,7,8-tetrahydroindolizine-1-carboxamide]: the concentration giving a half-maximal response (EC50) in data set [1] was below 50 nM. Besides, the cytotoxic concentration (CC50) at 7 days in data set [2] lay within 5 to 30 µM.

Consider `Cc1noc([C@H](C)NC(=O)C(=O)c2c(Cl)c(C(=O)Nc3ccc(F)c(C)c3)c3n2CCCC3)n1` [Example 494, (S)-2-chloro-N-(4-fluoro-3-methylphenyl)-3-(2-((1-(3-methyl-1,2,4-oxadiazol-5-yl)ethyl)amino)-2-oxoacetyl)-5,6,7,8-tetrahydroindolizinee-1-carboxamide], for which the half-maximal effective concentration (EC50) in data set [1] was below 50 nM. The same compound returned a cytotoxic concentration (CC50) at 7 days in data set [2] of 5 to 30 µM.

Take `Cc1noc([C@@H](C)NC(=O)C(=O)c2c(Cl)c(C(=O)Nc3ccc(F)c(C)c3)c3n2CCCC3)n1` [Example 495, (R)-2-chloro-N-(4-fluoro-3-methylphenyl)-3-(2-((1-(3-methyl-1,2,4-oxadiazol-5-yl)ethyl)amino)-2-oxoacetyl)-5,6,7,8-tetrahydroindoliizine-1-carboxamide]: in data set [1], the 50% effective concentration (EC50) is below 50 nM. Moreover, the half-maximal cytotoxic concentration (CC50) at 7 days in data set [2] was 5 to 30 µM.

Turning to `Cc1cc(NC(=O)c2c(Cl)c(C(=O)C(=O)NC3(CO)CC(F)(F)C3)n3c2CCCC3)ccc1F` [Example 496, 2-chloro-3-(2-((3,3-difluoro-1-(hydroxymethyl)cyclobutyl)amino)-2-oxoacetyl)-N-(4-fluoro-3-methylphenyl)-5,6,7,8-tetrahydroindolizine-1-carboxamide], in data set [1], the EC50 was below 50 nM. For the same compound, the CC50 at 7 days in data set [2] fell in the range of 5 to 30 µM.

As for `Cc1cc(NC(=O)c2c(Cl)c(C(=O)C(=O)NCC(C)(C)O)n3c2CCCC3)ccc1F` [Example 497, 2-chloro-N-(4-fluoro-3-methylphenyl)-3-(2-((2-hydroxy-2-methylpropyl)amino)-2-oxoacetyl)-5,6,7,8-tetrahydroindoliine-1-carboxamide], the concentration giving a half-maximal response (EC50) in data set [1] lay in the range of 50 to 499 nM. The compound further displayed a CC50 at 7 days in data set [2] of 0.5 to 4.99 µM.

Turning to `Cc1cc(NC(=O)c2c(Cl)c(C(=O)C(=O)NCC(C)(C)CO)n3c2CCCC3)ccc1F` [Example 498, 2-chloro-N-(4-fluoro-3-methylphenyl)-3-(2-((3-hydroxy-2,2-dimethylpropyl)amino)-2-oxoacetyl)-5,6,7,8-tetrahydroindolizine-1-carboxamide], the concentration giving a half-maximal response (EC50) in data set [1] lay within 50 to 499 nM. The compound further had a CC50 at 7 days in data set [2] above 30 µM.

`O=C(NC1(CO)CCC1)C(=O)c1c(Cl)c(C(=O)Nc2ccc(F)c(F)c2)c2n1CCCC2` [Example 499, 2-chloro-N-(3,4-difluorophenyl)-3-(2-((1-(hydroxymethyl)cyclobutyl)amino)-2-oxoacetyl)-5,6,7,8-tetrahydroindolizine-1-carboxamide]: the concentration giving a half-maximal response (EC50) in data set [1] is below 50 nM. The compound further gave a half-maximal cytotoxic concentration (CC50) at 7 days in data set [2] above 30 µM.

Turning to `O=C(NC1(CO)CC1)C(=O)c1c(Cl)c(C(=O)Nc2ccc(F)c(Cl)c2)c2n1CCCC2` [Example 501, 2-chloro-N-(3-chloro-4-fluorophenyl)-3-(2-((1-(hydroxymethyl)cyclopropyl)amino)-2-oxoacetyl)-5,6,7,8-tetrahydroindolizine--1 carboxamide], the 50% effective concentration (EC50) in data set [1] fell in the range of 50 to 499 nM. Also, the 50% cytotoxic concentration (CC50) at 7 days in data set [2] fell in the range of 5 to 30 µM.

On to `O=C(NC1(CO)CC1)C(=O)c1c(Cl)c(C(=O)Nc2ccc(F)c(F)c2)c2n1CCCC2` [Example 502, 2-chloro-N-(3,4-difluorophenyl)-3-(2-((1-(hydroxymethyl)cyclopropyl)amino)-2-oxoacetyl)-5,6,7,8-tetrahydroindolizine-1-carboxamide], for which the EC50 in data set [1] lay within 50 to 499 nM. Besides, the cytotoxic concentration (CC50) at 7 days in data set [2] is above 30 µM.

Regarding `Cc1cc(NC(=O)c2c(Cl)c(C(=O)C(=O)NCc3cnc(N)s3)n3c2CCCC3)ccc1F` [Example 503, 3-(2-(((2-aminothiazol-5-yl)methyl)amino)-2-oxoacetyl)-2-chloro-N-(4-fluoro-3-methylphenyl)-5,6,7,8-tetrahydroindolizine-1-carboxamide], the EC50 in data set [1] is below 50 nM. The half-maximal cytotoxic concentration (CC50) at 7 days in data set [2] was above 30 µM.

In the case of `Cc1cc(NC(=O)c2c(Cl)c(C(=O)C(=O)NC3(CO)CCC3)n3c2CCCC3)ccc1F` [Example 504, 2-chloro-N-(4-fluoro-3-methylphenyl)-3-(2-((1-(hydroxymethyl)cyclobutyl)amino)-2-oxoacetyl)-5,6,7,8-tetrahydroindolizine-1-carboxamide], the concentration giving a half-maximal response (EC50) in data set [1] was below 50 nM. In data set [2], this compound gave a 50% cytotoxic concentration (CC50) at 7 days of 5 to 30 µM.

Turning to `Cc1cc(NC(=O)c2c(Cl)c(C(=O)C(=O)N[C@H]3COC[C@@H]3O)n3c2CCCC3)ccc1F` [Example 505, 2-chloro-N-(4-fluoro-3-methylphenyl)-3-(2-(((3S,4R)-4-hydroxytetrahydrofuran-3-yl)amino)-2-oxoacetyl)-5,6,7,8-tetrahydroindolizine-1-carboxamide], the EC50 in data set [1] was 500 to 1000 nM. The compound further showed a CC50 at 7 days in data set [2] above 30 µM.

In the case of `Cc1cc(NC(=O)c2c(Cl)c(C(=O)C(=O)N[C@H]3CCC[C@H]3O)n3c2CCCC3)ccc1F` [Example 506, 2-chloro-N-(4-fluoro-3-methylphenyl)-3-(2-(((1S,2R)-2-hydroxycyclopentyl)amino)-2-oxoacetyl)-5,6,7,8-tetrahydroindolizine-1-carboxamide], the EC50 in data set [1] is 500 to 1000 nM. Besides, the half-maximal cytotoxic concentration (CC50) at 7 days in data set [2] lay within 5 to 30 µM.

For the compound `Cc1cc(NC(=O)c2c(Cl)c(C(=O)C(=O)NC3(CO)CC(F)(F)C3)n3c2CCCC3)cnc1F` [Example 507, 2-chloro-3-(2-((3,3-difluoro-1-(hydroxymethyl)cyclobutyl)amino)-2-oxoacetyl)-N-(6-fluoro-5-methylpyridin-3-yl)-5,6,7,8-tetrahydroindolizine-1-carboxamide], in data set [1], the half-maximal effective concentration (EC50) was in the range of 50 to 499 nM. In data set [2], this compound yielded a CC50 at 7 days above 30 µM.

Consider `Cc1cc(NC(=O)c2c(Cl)c(C(=O)C(=O)NC(C)(C)CO)n3c2CCCC3)cnc1F` [Example 508, 2-chloro-N-(6-fluoro-5-methylpyridin-3-yl)-3-(2-((1-hydroxy-2-methylpropan-2-yl)amino)-2-oxoacetyl)-5,6,7,8-tettrahydroindolizine-1-carboxamide], for which, in data set [1], the EC50 lay in the range of 500 to 1000 nM. For the same compound, the cytotoxic concentration (CC50) at 7 days in data set [2] was above 30 µM.

Take `Cc1noc([C@H](C)NC(=O)C(=O)c2c(Cl)c(C(=O)Nc3ccnc(F)c3)c3n2CCCC3)n1` [Example 509, (S)-2-chloro-N-(2-fluororpyridin-4-yl)-3-(2-((1-(3-methyl-1,2,4-oxadiazol-55-yl)ethyl)amino)-2-oxoacetyl)-5,6,7,8-tetrahydroindoliznie-1-carboxamide]: the concentration giving a half-maximal response (EC50) in data set [1] lay in the range of 500 to 1000 nM. The compound further displayed a CC50 at 7 days in data set [2] above 30 µM.

Take `Cc1noc([C@@H](C)NC(=O)C(=O)c2c(Cl)c(C(=O)Nc3ccnc(F)c3)c3n2CCCC3)n1` [Example 510, (R)-2-chloro-N-(2-fluoropyridin-4-yl)-3-(2-((1-(3-methyl-1,2,4-oxadiazol-5-yl)ethyl)amino)-2-oxoacetyl)-5,6,7,8-tetrahydroindolizine-1-carboxamide]: in data set [1], the EC50 was above 1000 nM. Moreover, the 50% cytotoxic concentration (CC50) at 7 days in data set [2] was above 30 µM.

Turning to `O=C(NC1(CO)CC(F)(F)C1)C(=O)c1c(Cl)c(C(=O)Nc2ccnc(F)c2)c2n1CCCC2` [Example 511, 2-chloro-3-(2-((3,3-difluoro-1-(hydroxymethyl)cyclobutyl)amino)-2-oxoacetyl)-N-(2-fluoropyridin-4-yl)-5,6,7,8-tetrahydroindolizine-1-carboxamide], the concentration for a half-maximal effect (EC50) in data set [1] lay within 50 to 499 nM. This compound also had a CC50 at 7 days in data set [2] above 30 µM.

For `CC(C)(CO)NC(=O)C(=O)c1c(Cl)c(C(=O)Nc2ccnc(F)c2)c2n1CCCC2` [Example 512, 2-chloro-N-(2-fluoropyridin-4-yl)-3-(2-((1-hydroxy-2-methylpropan-2-yl)amino)-2-oxoacetyl)-5,6,7,8-tetrahydroindolizine-1-carboxamide], the EC50 in data set [1] was 500 to 1000 nM. Also, the CC50 at 7 days in data set [2] was above 30 µM.

For the compound `O=C(N[C@H]1COC[C@@H]1O)C(=O)c1c(Cl)c(C(=O)Nc2ccc(F)c(Cl)c2)c2n1CCCC2` [Example 513, 2-chloro-N-(3-chloro-4-fluorophenyl)-3-(2-(((3S,4R)-4-hydroxytetrahydrofuran-3-yl)amino)-2-oxoacetyl)-5,6,7,8-tetrahydroindolizine-1-carboxamide], the concentration giving a half-maximal response (EC50) in data set [1] was 50 to 499 nM. In data set [2], the half-maximal cytotoxic concentration (CC50) at 7 days was above 30 µM.

As to `O=C(N[C@H]1CCC[C@H]1O)C(=O)c1c(Cl)c(C(=O)Nc2ccc(F)c(Cl)c2)c2n1CCCC2` [Example 514, 2-chloro-N-(3-chloro-4-fluorophenyl)-3-(2-(((1S,2R)-2-hydroxycyclopentyl)amino)-2-oxoacettyl)-5,6,7,8-tetrahydroindolizine-1-carboxamide], in data set [1], the EC50 was in the range of 50 to 499 nM. This compound also gave a CC50 at 7 days in data set [2] of 5 to 30 µM.
